Source: patent US10682333B2, “Composition for inhibiting formation of SNARE complex, containing myricetin derivatives” (RESEARCH & BUSINESS FOUNDATION SUNGKYUNKWAN UNIVERSITY, priority 2015, dated 2020)
Like-named read-outs stand apart in the source and are kept apart here.

How the values were obtained:
PCl2 cells [1] = assay: [3H] norepinephrine release from PCl2 cells (liquid scintillation); format: cell-based; settings: for inhibition of release of [3H] norepinephrine: Krebs' buffer with high K+
Method: The first method is as follows. […] After thorough washing, the PCl2 cells were washed four times with the culture medium for 15 minutes each. […] The medium was replaced with Krebs' buffer with high K^+, followed by culturing for 10 minutes, to collect samples. The collected samples were subjected to radiation measurement using a liquid scintillation counter.

PCl2 cells [2] = assay: Intracellular bioconversion into myricetin in PCl2 cells (HPLC); format: in vitro ADME; settings: within 1 hour
Method: A rate of bioconversion of the myricetin derivative prepared by acylation with acetic acid into myricetin in vivo was determined.
After the cells were completely washed, the cells were treated with trypsin to collect trypsin-attached cells, and trypsin was removed therefrom to obtain only pure cells. The cells were suspended in 100 μl of tetrahydrofuran, followed by disruption through sonication, and then only tetrahydrofuran in which materials in the cells were lysed was collected. Subsequently, only myricetin in the recovered purified liquid was analyzed by high-performance liquid chromatography (HPLC) to examine whether the myricetin derivative prepared by acylation using acetic acid was converted into myricetin, and the results thereof are illustrated in FIG. 15.

[3] = Examination of color of myricetin derivatives by degree of acylation; format: physicochemical; settings: degree of acylation by palmitic acid
Text: In the present experimental example, whether a disadvantage of myricetin that a too dark intrinsic color thereof causes the skin to be stained can be addressed through making changes in properties using myricetin derivatives according to the present invention was examined.
As a result, it was observed that as a degree to which a hydroxyl group of myricetin was acylated by palmitic acid, i.e., the degree of acylation, increased, colors of the myricetin derivatives were changed, unlike conventional myricetin. In particular, it was observed that the myricetin derivative obtained in Example 3, in which one hydroxyl group of myricetin was acylated by palmitic acid, had yellow color, which is an intrinsic color of myricetin (see FIG. 12A), whereas the myricetin derivative obtained in Example 4, in which all hydroxyl groups of myricetin were acylated by palmitic acid, had white color (see FIG. 12B).

[4] = Solubility in canola oil and mineral oil; format: physicochemical
Method: In the present experimental example, in view of the fact that in Example 4, myricetin underwent various changes in properties during synthesis of a myricetin derivative, in which all hydroxyl groups of myricetin were acylated by palmitic acid, the solubilities of the myricetin derivative in an organic solvent, or in a commercially available liposoluble cosmetic, food product, or the like were measured.
In particular, the myricetin derivative was dissolved in canola oil and mineral oil at a ratio of 1 mg/l ml. The results thereof are illustrated in FIG. 13.

[5] = target: T1, SNARE complex (Syntaxin 1A-CFP, VAMP2-YFP) in PCl2 cells (UniProt P60881+P63027+Q16623); assay: In vivo (cell) SNARE function screen: FRET C and NPY release in PCl2 cells; format: cell-based
T1 construct: expressed in transfected cells
T1 sequence (Q16623 whole entry): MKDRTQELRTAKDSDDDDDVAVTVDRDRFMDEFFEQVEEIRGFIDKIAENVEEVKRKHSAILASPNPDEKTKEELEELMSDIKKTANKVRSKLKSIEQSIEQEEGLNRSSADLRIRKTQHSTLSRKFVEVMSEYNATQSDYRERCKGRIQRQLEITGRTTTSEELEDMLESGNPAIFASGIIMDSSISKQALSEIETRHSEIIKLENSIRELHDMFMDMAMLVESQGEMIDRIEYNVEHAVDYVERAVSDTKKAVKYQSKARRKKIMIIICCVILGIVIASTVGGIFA
T1 sequence (P63027 whole entry): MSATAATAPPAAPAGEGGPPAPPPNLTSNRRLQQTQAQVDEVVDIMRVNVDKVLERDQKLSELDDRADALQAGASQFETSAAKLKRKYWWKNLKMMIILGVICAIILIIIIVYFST
T1 sequence (P60881 whole entry): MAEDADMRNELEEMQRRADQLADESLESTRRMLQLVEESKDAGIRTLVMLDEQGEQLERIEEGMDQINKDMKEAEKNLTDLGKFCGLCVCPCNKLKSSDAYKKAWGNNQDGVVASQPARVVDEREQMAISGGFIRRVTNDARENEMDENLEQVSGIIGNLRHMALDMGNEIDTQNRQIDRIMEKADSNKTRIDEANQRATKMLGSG

SNARE complexes [6] = target: T2, SNARE complexes (Homo sapiens, UniProt P60880+P63027+Q16623); assay: Immunoblotting of SDS-resistant SNARE complexes, in vivo; format: cell-based; settings: SDS-PAGE
T2 sequence (Q16623 whole entry): as the sequence (Q16623 whole entry) above
T2 sequence (P60880 whole entry): as the sequence (P60881 whole entry) above
T2 sequence (P63027 whole entry): as the sequence (P63027 whole entry) above
Text: (§1) The above characteristics were clearly confirmed by immunoblotting of SNARE complexes (see FIG. 2B). SNARE complexes are known to have SDS-resistance, and based on these characteristics, immunoblotting using SDS-PAGE is generally used to identify the formation of SNARE complexes.

[7] = Light stability under UV, color observed with the naked eye over time; format: physicochemical; settings: UV lamp
Method: It was examined whether myricetin, and laricitrin and syringetin, which are naturally occurring myricetin derivatives, were denatured when exposed to UV. First, each myricetin derivative (MP, 1 mg/1.34 g), prepared by reacting myricetin (M, 1 mg/1.34 g) and palmitic acid, was uniformly mixed in a commercially available sunblock cream (Kolmar Korea, NoTS UV protection sunscreen cream, 1.34 g), and the mixture was applied on a cover glass, followed by irradiation for 24 hours with UV having an intensity of 253.7 nM using a UV lamp.

[8] = target: SNARE-mediated membrane fusion (Homo sapiens, UniProt P60880+P63027+Q16623); assay: In vitro membrane fusion by FRET on dye-labelled lipid bilayer membrane; format: biochemical; settings: artificial lipid bilayer membrane
Sequence of SNARE-mediated membrane fusion (Q16623 whole entry, the tested form may be a part): as the sequence (Q16623 whole entry) above
Sequence of SNARE-mediated membrane fusion (P60880 whole entry, the tested form may be a part): as the sequence (P60881 whole entry) above
Sequence of SNARE-mediated membrane fusion (P63027 whole entry, the tested form may be a part): as the sequence (P63027 whole entry) above

SNARE complexes [9] = target: T2, SNARE complexes; assay: Immunoblotting of SDS-resistant SNARE complexes, in vitro; format: biochemical; settings: SDS-PAGE
Text: as §1

[10] = Light stability under UV, DMSO solution mixed with zinc oxide; format: physicochemical; settings: 1 mg/ml DMSO with zinc oxide, UV 2 hours
Method: First, 1 mg of each of myricetin and the myricetin derivatives were dissolved in 1 ml of dimethyl sulfoxide (DMSO), followed by mixing with zinc oxide having high reactivity with a hydroxyl group of myricetin. The resulting mixed solution was applied, as 100 μl drops, on 3M paper, and irradiated for 2 hours with UV light having an intensity of 253.7 nM using a UV lamp. As negative controls, untreated DMSO and a mixed solution of untreated DMSO and zinc oxide were used.

in vivo functions (FRET C, NPY release) [5]	Structure (SMILES)	inhibition of release of [3H] norepinephrine (PCl2 cells [1])	formation of SNARE complexes in vivo (SNARE complexes [6])	color change on UV irradiation compared to myricetin [7]	time after UV irradiation at which color turned brown [7]	further results
	CC(=O)Oc1cc(OC(C)=O)c2c(=O)c(OC(C)=O)c(-c3cc(OC(C)=O)c(OC(C)=O)c(OC(C)=O)c3)oc2c1 [MA]	comparable or slightly better activity				fraction bioconverted into myricetin (PCl2 cells [2]): 3%
	CCCCCCCCCCCCCCCC(=O)Oc1cc(OC(=O)CCCCCCCCCCCCCCC)c2c(=O)c(OC(=O)CCCCCCCCCCCCCCC)c(-c3cc(OC(=O)CCCCCCCCCCCCCCC)c(OC(=O)CCCCCCCCCCCCCCC)c(OC(=O)CCCCCCCCCCCCCCC)c3)oc2c1 [MP]					color of the substance [3]: white color; solubility in canola oil [4]: liposoluble; solubility in mineral oil [4]: liposoluble
40-45 % of the control	COc1cc(O)c2c(=O)c(OC)c(-c3cc(OC)c(OC)c(OC)c3)oc2c1 [combretol]		decreasing tendency only in vivo			
40-45 % of the control	COc1cc(-c2oc3cc(O)cc(O)c3c(=O)c2O)cc(O)c1O [laricitrin]	highest reactivity	decreasing tendency only in vivo	did not show clear color changes	60 min	activity of inhibiting [3H] norepinephrine release compared to conventional myricetin (PCl2 cells [1]; 20 μM): at least two-fold improved activity
	O=c1c(O)c(-c2cc(O)c(O)c(O)c2)oc2cc(O)cc(O)c12 [myricetin]	concentration-dependent manner	decreasing tendency		5 min	in vivo functions (FRET C, NPY release) ([5]; PCl2 cells): ≤ 40 % of the control; in vitro functions (membrane fusion) [8]: ≤ 40 % of the control; formation of SNARE complexes in vitro (SNARE complexes [9]): decreasing tendency; color change on UV exposure [10]: color changes over time; solubility in canola oil ([4]; 1 mg/1 ml): insoluble; solubility in mineral oil ([4]; 1 mg/1 ml): insoluble; time after UV irradiation at which color turned dark brown (complete oxidation) [7]: 30 min
	COc1cc(-c2oc3cc(O)cc(O)c3c(=O)c2O)cc(OC)c1O [syringetin]		decreasing tendency only in vivo	did not show clear color changes	240 min	
